The values that follow come from patent US11993576B2, “N-benzyl-N-arylsulfonamide derivative and preparation and use thereof” (Hangzhou Yirui Pharmaceutical Technology Co., Ltd, priority 2019, dated 2024).

The test addresses human Kv1.3 (Homo sapiens, UniProt P22001). The experiment in a line: IonWorks automated patch clamp assay of inhibitory activity against Kv1.3. The test is classed as cell-based. As to conditions: automated patch clamp method; CHO-K1 cells stably expressing human Kv1.3. Here is the method:
I. IonWorks Automated Patch Clamp Assay of Inhibitory Activity Against Kv1.3
The principle and method for Kv1.3 IonWorks assay can be found in Schroeder et al. [Schroeder et al. J Biomol Screen 2003, 8(1):50-64]
Inhibitory activity of the compounds against Kv1.3 was assessed using a CHO-K1 recombinant cell line stably expressing human Kv1.3 (Charles River, Calif.). The cells were cultured in an F-12K culture medium containing 5% calf serum (Invitrogen, Carlsbad. Calif.) in an incubator at 37° C. and under air humidity with 6% CO2. Prior to be fed in the IonWorks system, the adherent cells were treated with Versene at 37° C. for 6-7 min. After gently beating the culture flask, the cells were re-suspended in a PBS phosphate buffer, and then were centrifuged at 50×g for 4 min. After a short grinding, the cells were eventually re-suspended in an external recording solution at a density of approximately 1×10^6/mL.
The compounds were dissolved in DMSO to formulate a final assay concentration of 300× on the master plate. The final gradient assay concentrations were […], 0.096, 0.048, 0.24, 1.2, 6 and 30 μM. All 300× stock solutions of each compound in DMSO were transferred to a 384-well plate with 2 μl per well. The plates were sealed and stored at −80° C. until the day of assay.
On the day of assay, the plates were each thawed at room temperature. After centrifugation, 198 μl of the external recording solution (with the components of: 130 mM Na-Gluconate, 20 mM NaCl, 4 mM KCl, 1 mM MgCl2, 1.8 mM CaCl2, 5 mM Glucose and 10 mM HEPES, pH7.3) was added and mixed thoroughly. This step provided a 1:100 dilution for the compounds. After addition of cells to IonWorks, a further 1:3 dilution was carried out, resulting in a total dilution of 1:300. At least 8 wells were reserved as blank control on each of the plates, i.e., containing only 0.3% DMSO. In addition, at least 8 wells were reserved as positive control to detect the specificity to cell signals. Fluoxetine, a compound as the positive control, was assayed at its maximum blocking concentration (100 μm) and secondary maximum blocking concentration (10 μm). In addition, an internal recording solution used in the assay (with the components of: 100 mM K-gluconate, 40 mM KCl, 1 mM MgCl2, 1 mM EGTA and 10 mM HEPES, pH7.3) contained Amphotericin B at a final concentration of 200 μg/mL to gain current channels inside the cells. The osmotic pressure of the solution was adjusted with sucrose.
Experimental procedures were carried out following the protocols as set by IonWorks Quattro system (Molecular Devices, San Jose, CA). The current of human Kv1.3 was elicited to 0 millivolt (mV) for four times by a pulse lasting 1 second. A potential of −80 mV was maintained between pulses, for 5 seconds. First, a early voltage application program was started in the IonWorks Quattro system, and then the compounds were added and incubated for 600 seconds. Next, a late voltage application program was started until completion of all assays.
The maximum peak outward currents both before and after addition of the compounds as well as the average tail current elicited when the fourth pulse rose to 0 mV were measured. The inhibitory activity of the compounds against Kv1.3 can be calculated by dividing the measured current amplitude after addition of the compounds by the measured current amplitude before addition of the compounds.
All data was calibrated by a data filtration program of the IonWorks Quattro system. The filtration standard was that: seal quality >30 MΩ, decrease of seal resistance <50% and current amplitude >200 pA.
(In patch-clamp work, channel activity is measured electrically.)

Chain of human Kv1.3 (P22001 whole entry): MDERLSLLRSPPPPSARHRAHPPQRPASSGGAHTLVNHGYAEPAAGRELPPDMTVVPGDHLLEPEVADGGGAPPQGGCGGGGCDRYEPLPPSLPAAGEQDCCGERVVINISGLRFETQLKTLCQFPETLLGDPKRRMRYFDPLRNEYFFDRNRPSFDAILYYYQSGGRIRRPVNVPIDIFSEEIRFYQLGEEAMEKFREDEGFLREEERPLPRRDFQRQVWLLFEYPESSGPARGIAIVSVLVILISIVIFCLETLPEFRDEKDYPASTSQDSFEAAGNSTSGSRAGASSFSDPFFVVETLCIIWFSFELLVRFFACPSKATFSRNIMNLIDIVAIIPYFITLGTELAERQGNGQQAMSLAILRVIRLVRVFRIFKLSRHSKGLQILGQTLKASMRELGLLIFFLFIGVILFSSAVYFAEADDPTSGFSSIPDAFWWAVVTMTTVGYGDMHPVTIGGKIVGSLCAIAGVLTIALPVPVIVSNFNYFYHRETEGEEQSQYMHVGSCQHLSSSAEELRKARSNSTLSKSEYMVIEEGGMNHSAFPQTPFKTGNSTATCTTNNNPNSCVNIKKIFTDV

The term IC50 denotes the concentration at which inhibition is half-maximal. High values mean lower potency, low ones higher potency. `CCOC(=O)N1CCN(c2ccc(N(Cc3ccccc3)S(=O)(=O)c3ccccc3)cc2C#N)CC1` [Compound 1, ethyl 4-(4-(N-benzylbenzenesulfonamido)-2-cyanophenyl)piperazin-1-formate]: the IC50 worked out at 265 nM. With `CCOC(=O)N1CCN(c2ccc(N(Cc3ccc(F)cc3)S(=O)(=O)c3ccc(F)cc3)cc2C#N)CC1` [Compound 2, ethyl 4-(2-cyano-4-((4-fluoro-N-(4-fluorobenzyl)phenyl)sulfonamido)phenyl)piperazin-1-formate] the figure was 131 nM. With `CCOC(=O)N1CCN(c2ccc(N(Cc3ccc(F)c(OC)c3)S(=O)(=O)c3ccc(F)cc3)cc2C#N)CC1` [Compound 3, ethyl 4-(2-cyano-4-((4-fluoro-N-(4-fluoro-3-methoxybenzyl)phenyl)sulfonamido)phenyl)piperazin-1-formate] the figure was 107 nM; with `CCOC(=O)N1CCN(c2ccc(N(C(=O)c3ccccc3)S(=O)(=O)c3ccccc3)cc2C#N)CC1` [Compound 4, ethyl 4-(2-cyano-4-(N-(benzenesulfonamido)benzamido)phenyl)piperazin-1-formate], 12900 nM. As to `N#Cc1cc(N(Cc2ccccc2)S(=O)(=O)c2ccccc2)ccc1N1CCC(=O)CC1` [Compound 5, N-benzyl-N-(3-cyano-4-(4-oxopiperidin-1-yl)phenyl) benzenesulfonamide], the IC50 amounted to 186 nM. The figure for `N#Cc1cc(N(Cc2ccccc2)S(=O)(=O)c2ccccc2)ccc1N1CCC(O)CC1` [Compound 6, N-benzyl-N-(3-cyano-4-(4-hydroxypiperidin-1-yl)phenyl)benzenesulfonamide] is 193 nM. With `CC(=O)OC1CCN(c2ccc(N(Cc3ccccc3)S(=O)(=O)c3ccccc3)cc2C#N)CC1` [Compound 7, N-benzyl-N-(3-cyano-4-(4-acetyloxypiperidin-1-yl)phenyl)benzenesulfonamide] the figure was 312 nM. `CCCN(c1ccc(N2CCN(C(=O)OCC)CC2)c(C#N)c1)S(=O)(=O)c1ccc(F)cc1` [Compound 8, Ethyl 4-(2-cyano-4-((4-fluoro-N-propylphenyl)sulfonamido)phenyl)piperazin-1-formate]: it took 9300 nM to reach half-maximal inhibition (IC50). This IC50 lies about 30-fold higher than the previous one.

`CCCS(=O)(=O)N(Cc1ccc(F)cc1)c1ccc(N2CCN(C(=O)OCC)CC2)c(C#N)c1` [Compound 9, ethyl 4-(2-cyano-4-(N-(4-fluorobenzyl)propanesulfonamido)phenyl)piperazin-1-formate] returned an IC50 of 134 nM. With `N#Cc1cc(N(Cc2ccc(F)cc2)S(=O)(=O)c2ccccc2)ccc1N1CCOCC1` [Compound 10, N-(3-cyano-4-morpholinylphenyl)-N-(4-fluorobenzyl) benzenesulfonamide] the figure was 98 nM. The figure for `CN(C)C(=O)N1CCN(c2ccc(N(Cc3ccccc3)S(=O)(=O)c3ccccc3)cc2C#N)CC1` [Compound 11, 4-(4-(N-benzylbenzenesulfonamido)-2-cyanophenyl)-N,N-dimethylpiperazin-1-formamide] is 195 nM; for `CN(C)S(=O)(=O)C1CCN(c2ccc(N(Cc3ccccc3)S(=O)(=O)c3ccccc3)cc2C#N)CC1` [Compound 12, 1-(4-(N-benzylbenzenesulfonamido)-2-cyanophenyl)-N,N-dimethylpiperidin-4-sulfonamide] it is 234 nM; for `CCOC(=O)N1CCN(c2ccc(N(CC(C)C)S(=O)(=O)c3ccccc3)cc2C#N)CC1` [Compound 13, ethyl 4-(2-cyano-4-(N-isobutylphenylsulfonamido)phenyl)piperazin-1-formate] it is 6400 nM. With `CCOC(=O)NC1CCN(c2ccc(N(Cc3ccccc3)S(=O)(=O)c3ccccc3)cc2C#N)CC1` [Compound 14, ethyl 1-(4-(N-benzylbenzenesulfonamido)-2-cyanophenyl)piperidin-4-yl carbamate] the figure was 129 nM. In turn, `CC(=O)NC1CCN(c2ccc(N(Cc3ccccc3)S(=O)(=O)c3ccccc3)cc2C#N)C1` (stereo not drawn) [Compound 15, N-(1-(4-(N-benzylbenzenesulfonamido)-2-cyanophenyl)pyrrolidin-3-yl)acetamide] displayed an IC50 of 310 nM. The figure for `N#Cc1cc(N(Cc2ccccc2)S(=O)(=O)c2ccccc2)ccc1N1C(=O)CCCC1=O` [Compound 16, N-benzyl-N-(3-cyano-4-(2,6-dioxopiperidin-1-yl)phenyl)benzenesulfonamide] is 1260 nM. With `CN1CCCN(c2ccc(N(Cc3ccccc3)S(=O)(=O)c3ccccc3)cc2C#N)C1=O` [Compound 17, N-benzyl-N-(3-cyano-4-(3-methyl-2-oxotetrahydropyrimidin-1(2H)-yl)phenyl)benzenesulfonamide] the figure was 190 nM; with `CN(C)CCOC1CCN(c2ccc(N(Cc3ccccc3)S(=O)(=O)c3ccccc3)cc2C#N)CC1` [Compound 18, N-benzyl-N-(3-cyano-4-(4-(2-(dimethylamino)ethoxy)piperidin-1-yl)phenyl)benzenesulfonamide], 101 nM. The figure for `CCCS(=O)(=O)N(Cc1ccc(F)cc1)c1ccc(N2CCC(O)CC2)c(C#N)c1` [Compound 19, N-(3-cyano-4-(4-hydroxypiperidin-1-yl)phenyl)-N-(4-fluorobenzyl)propane-1-sulfonamide] is 130 nM.

Take `N#Cc1cc(N(Cc2ccc(F)cc2)S(=O)(=O)c2ccccc2)ccc1N1CCC(O)CC1` [Compound 20, N-(3-cyano-4-(4-hydroxypiperidin-1-yl)phenyl)-N-(4-fluorobenzyl)benzenesulfonamide]: the IC50 was 90 nM.

`CCCS(=O)(=O)N(Cc1ccccc1)c1ccc(N2CCN(C(=O)OCC)CC2)c(C#N)c1` [Compound 22, Ethyl 4-(4-(N-benzylpropanesulfonamido) 2-cyanophenyl)piperazin-1-formate] returned an IC50 of 333 nM.

In turn, `CCCS(=O)(=O)N(Cc1cccc(F)c1)c1ccc(N2CCN(C(=O)OCC)CC2)c(C#N)c1` [Compound 23, Ethyl 4-(2-cyano-4-(N-(3-fluorobenzyl)propanesulfonamido)phenyl) piperazin-1-formate] yielded an IC50 of 176 nM. The figure for `CCCS(=O)(=O)N(Cc1ccccc1F)c1ccc(N2CCN(C(=O)OCC)CC2)c(C#N)c1` [Compound 25, Ethyl 4-(2-cyano-4-(N-(2-fluorobenzyl)propanesulfonamido)phenyl) piperazin-1-formate] is 321 nM; for `CCCS(=O)(=O)N(Cc1cccc(OC)c1)c1ccc(N2CCN(C(=O)OCC)CC2)c(C#N)c1` [Compound 26, Ethyl 4-(2-cyano-4-(N-(3-methoxybenzyl)propanesulfonamido)phenyl) piperazin-1-formate] it is 420 nM; for `CCCS(=O)(=O)N(Cc1ccc(OC)cc1)c1ccc(N2CCN(C(=O)OCC)CC2)c(C#N)c1` [Compound 27, Ethyl 4-(2-cyano-4-(N-(4-methoxybenzyl)propanesulfonamido)phenyl)piperazin-1-formate] it is 239 nM.

For the molecule `CCCS(=O)(=O)N(Cc1ccc(OC)cc1F)c1ccc(N2CCN(C(=O)OCC)CC2)c(C#N)c1` [Compound 29, Ethyl 4-(2-cyano-4-(N-(2-fluoro-4-methoxybenzyl)propanesulfonamido)phenyl)piperazin-1-formate], the IC50 stood at 439 nM. The figure for `CCCS(=O)(=O)N(Cc1ccc(F)cc1OC)c1ccc(N2CCN(C(=O)OCC)CC2)c(C#N)c1` [Compound 30, Ethyl 4-(2-cyano-4-(N-(4-fluoro-2-methoxybenzyl)propanesulfonamido)phenyl)piperazin-1-formate] is 288 nM.
